{"source": "patent US11357850B2", "about": "“Methods for treating breast cancer using INOS-inhibitory compositions” (The Methodist Hospital, priority 2014, dated 2022)", "key": {"[1]": {"system": "C3L5 and C10", "settings": "cited from earlier work"}, "[2]": {"system": "EMT-6 cells", "settings": "mouse, in vivo; cited from earlier work"}, "[3]": {"system": "MDA-MB-231 xenografts", "assay": "Lung metastases-preventing study, MDA-MB-231 L/G xenografts", "type": "in vivo, mice", "method": "For the lung metastases-preventing study, MDA-MB-231 L/G cells were implanted as described above. The mice were randomized and treatments started 48 hrs after cell injection (n=5/group): 1) Vehicle (saline, i.p.), 2) L-NAME (80 mg/kg, i.p., daily for 35 days). Previous injection of luciferin, lungs were removed and washed in cold DMEM+10% FBS+1% antibiotics/antimycotic. Then, lungs were incubated in cold DMEM media containing 50 μM luciferin for 10 min. This protocol avoids the time lapse between lung extraction and exposure to luciferin. Fluorescent cancer cells were detected with an IVIS-200 in vivo imaging system (Perkin Elmer, Inc., Santa Clara, Calif., USA).\n(§1) Self-renewal and tumor-initiating capacity was determined by MSFE and limiting-dilution assays, respectively, in single cells isolated from tumor tissue. Briefly, breast tumor tissue was minced, digested in DMEM:F12 medium with 100 U/mL of collagenase type 3 (Worthington, Lakewood, N.J., USA) and 0.8 U/mL of dispase (Gibco, Carlsbad, Calif., USA) at 37° C. for 45 min. MSFE was assayed in isolated single cells as stated above. The limiting dilution assay (LDA) was performed injecting either […] isolated cells from tumor tissue in the mammary fat pad of SCID Beige mice (n=12/group). Flow cytometric analysis of CD44^+/CD24^−/low cell population was assayed using published methods.\niNOS inhibition reduces tumor growth, tumor initiating capacity and prevents lung metastases in mouse models of triple negative breast cancer. Based on the in vitro data, the inventor next investigated whether iNOS inhibition was able to prevent tumor initiation and metastasis of breast tumor cells in a mouse model of lung metastases. Daily i.p. injections of 80 mg/kg L-NAME were given to MDA-MB-231 xenograft-bearing mice for 35 days. […] Additionally, tumor-initiating capacity of CSC was assessed with a limiting dilution assay (LDA) by injecting single cells isolated from tumor tissue (5×10^5 or 1×10^5 cells) in the right mammary fat pad. All the animals of vehicle group (n=5) developed tumors whereas treatment with L-NAME yielded 3/5 tumors at 1.5 weeks with 5×10^5 cells.\nThe inventor then examined whether iNOS inhibition was able to suppress metastasis to lungs in TNBC xenografts model. The luciferase/GFP-based MDA-MB-231 (MDA-MB-231 L/G) xenograft mouse model mimics the metastatic process to the lungs in patients. In this model of lung metastasis, cells metastasize from the primary tumor to lungs in ˜35 days after implantation. MDA-MB-231 L/G cells were injected in the right mammary fat pad of SCID mice and 80 mg/kg L-NAME was given daily for 35 days."}, "[4]": {"system": "SUM159", "assay": "Cell migration, wound healing assay", "type": "cell-based, human", "settings": "96 hrs treatment, wound healing 12 hrs", "method": "(§2) FIG. 18A and FIG. 18B show the migration of MDA-MB-231 and SUM159 cells was assessed by “wound healing” assay. Briefly, 3×10^5 cells were plated in a 6-well plate until confluence in growth medium. […] A “wound” was then created in the cell monolayer. Images were taken at 0 and 12 hrs. Wound-healing capacity was determined with the software Image J. Data were replicated in three independent experiments. Results were normalized to vehicle;\n(§3) Cell migration capacity. Cell migration was determined with a “wound healing assay.” Briefly, 3×10^5 cells/well were grown in 6-well plates until confluence. […] To avoid an impact on cell proliferation, low serum medium was changed by regular growth medium in presence of inhibitors for 24 hrs (96 hrs total). A “wound” was then created in the cell monolayer with a 100-4, pipette tip. Images were taken at 0 hrs, and cells were allowed to heal the wound for 12 hrs. Wound-healing capacity was determined with the software Image J. Data were replicated in three independent experiments."}, "[5]": {"system": "MDA-MB-231", "assay": "Cell migration, wound healing assay", "type": "cell-based, human", "settings": "96 hrs treatment, wound healing 12 hrs", "method": "as §2, §3"}, "[6]": {"system": "HCC-70", "assay": "PD-L1 expression in TNBC cell line", "type": "cell-based, human"}, "[7]": {"system": "SUM159", "assay": "Cell proliferation assay (WST-1), iNOS inhibitors", "type": "cell-based, human", "settings": "highest concentration (4 mM), 96 hrs", "method": "(§4) Cell Culture. Mesenchymal-like triple negative breast cancer cell lines, MDA-MB-231 and SUM159, were purchased from American Type Culture Collection and Asterand, respectively. […] Mammosphere forming efficiency (MSFE), cell proliferation and migration assays are detailed below. Cell culture and mammosphere forming efficiency assay. […] For mammosphere-forming efficiency (MSFE) assay, 2,000 (SUM159) and 5,000 (MDA-MB-231) cells/well were cultured in 0.5% methylcellulose (MethoCult H4100, StemCell Technologies) and MammoCult basal medium supplemented with 10% MammoCult proliferation supplement, 4 μg/mL heparin and 0.48 μg/mL hydrocortisone (StemCell Technologies, Vancouver, BC, CANADA). […] Primary MSFE was evaluated dividing mammosphere number by cell number. After trypsinization of primary MS, single cells were grown in 0.5% methylcellulose and mammosphere medium (as described above) in absence of treatment. Secondary MS were scanned, counted and secondary MSFE were assessed. For the mouse model of lung metastasis, MDA-MB-231 cells were transfected with a luciferase/GFP-based dual-reporter plasmid and stable clones (MDA-MB-231 L/G) selected with 1 mg/mL blasticidin (InvivoGen, San Diego, Calif., USA). […] Proliferation rate was determined by adding premixed WST-1 reagent (Clontech). After incubation at 37° C. for 3 hrs, absorbance was read at 450 nm (reference wavelength 690 nm)."}, "[8]": {"system": "MDA-MB-231", "assay": "Cell proliferation assay (WST-1), iNOS inhibitors", "type": "cell-based, human", "settings": "highest concentration (4 mM), 96 hrs", "method": "as §4"}, "[9]": {"settings": "cited from earlier work"}, "[10]": {"system": "MDA-MB-468", "assay": "PD-L1 expression in TNBC cell line", "type": "cell-based, human"}, "[11]": {"assay": "LC-MS/MS quantification of methylarginine in plasma and tumor tissue", "type": "in vivo, mice", "procedure": "Metabolite profiling by liquid chromatography-tandem mass spectrometry (LC-MS/MS). MDA-MB-231 and SUM159 xenograft tissue from animal studies (L-NMMA given daily) as well as plasma samples were prepared as previously described. L-NMMA (200 mg/kg) was orally administered by gavage to female SCID Beige mice (n=5). Blood was drawn before (baseline, 0 hrs) and after L-NMMA administration (0.5, 2, 12, 24 hrs). LC-MS/MS platform used for metabolite profiling was previously described. Ratiometric quantification of methylarginine (L-NMMA) and citrulline was determined as ion abundance levels in plasma and tumor tissue."}, "[12]": {"settings": "cited from earlier work", "remark": "listed apart in the source"}, "[13]": {"system": "MDA-MB-231 xenografts", "assay": "MDA-MB-231 xenografts treated with L-NMMA, docetaxel, combination", "type": "in vivo, mice", "method": "(§5) Animal Studies. Female SCID Beige mice (4-5 weeks old) (Harlan Laboratories, Houston, Tex., USA) were housed under standard laboratory conditions (22° C.; 12 hrs/12 hrs light/dark cycle and free access to food and water). Either MDA-MB-231 or SUM159 cells (3×10^6) were injected in the right mammary fat pad. Once the tumors reached 150-200 mm^3, the mice were randomized into different groups as follows (n=10/group): 1) Vehicle (saline, i.p.), 2) L-NMMA (either 80 mg/kg or 200 mg/kg, i.p., daily), 3) Docetaxel (20 mg/kg), 4) Combo (L-NMMA and docetaxel).\nas §1\nThe role of L-NMMA was then investigated, either alone or in combination with docetaxel in a different TNBC mouse model. Docetaxel (20 mg/kg at days 0 and 21) and 200 mg/kg L-NMMA (daily) were given to MDA-MB-231 xenograft-bearing mice for 31 days."}, "[14]": {"system": "SUM159 cells", "assay": "Nitric oxide production (nitrate/nitrite fluorometric assay)", "type": "cell-based, human", "settings": "nitrate+nitrite in supernatant, up to 24 hrs", "source_text": "Nitric oxide production in SUM159 cells. […] Aliquots of cell culture supernatant were taken at 0, 0.5, 2, 6 and 24 hrs for nitrate+nitrite (total nitric oxide) production with the nitrate/nitrite fluorometric assay kit (Cayman Chemical) following manufacturer's instructions."}, "[15]": {"system": "SUM159 xenografts", "assay": "SUM159 xenografts treated with L-NMMA, docetaxel, combination", "type": "in vivo, mice", "method": "as §5, §1\nTo answer this question, daily injections of 80 mg/kg L-NMMA were first given to SUM159 xenograft-bearing mice alone or in combination with docetaxel (20 mg/kg). […] The inventor next analyzed the impact on CSC self-renewal by the MSFE assay."}, "[16]": {"molecular_target": "iNOS (Homo sapiens, UniProt P35228)", "assay": "LC-MS/MS quantification of citrulline in xenograft tissue", "type": "in vivo, mice", "settings": "SUM159 xenograft tissue, 24 hrs after completion of treatment", "procedure": "Ratiometric quantification of citrulline SUM159 xenograft tissue LC-MS/MS (Student's t-test). […] Results were normalized to vehicle. Data are presented as mean±SEM. ****p<0.0001, ***p<0.001, **p<0.01, *p<0.05; one-way ANOVA and Bonferroni's post-hoc test;\nMetabolite profiling by liquid chromatography-tandem mass spectrometry (LC-MS/MS). MDA-MB-231 and SUM159 xenograft tissue from animal studies (L-NMMA given daily) as well as plasma samples were prepared as previously described. […] LC-MS/MS platform used for metabolite profiling was previously described. Ratiometric quantification of methylarginine (L-NMMA) and citrulline was determined as ion abundance levels in plasma and tumor tissue."}}}
{"smiles": "COC(=O)[C@@H](N)CCCNC(=N)N[N+](=O)[O-]", "note": "[L-NAME, N^5-[imino(nitroamino)methyl]-L-ornithine methyl ester]", "values": [{"measurement": "invasive and migrating potential", "setting": "[1]", "result": "inhibited the invasive and migrating potential"}, {"measurement": "tumor growth and lung metastasis", "setting": "[2]", "result": "decrease tumor growth and lung metastasis"}, {"measurement": "ex vivo imaging of lungs in presence of luciferin (lung metastasis)", "setting": "[3]; 80 mg/kg daily for 35 days", "result": "higher fluorescence in vehicle group compared to L-NAME group"}, {"measurement": "MSFE of primary MS of cells isolated from tumor tissue", "setting": "[3]; 80 mg/kg i.p. daily for 35 days", "result": "significantly reduced"}, {"measurement": "tumor growth", "setting": "[3]; 80 mg/kg i.p. daily for 35 days, p=0.001", "result": "significantly reduced tumor growth"}, {"measurement": "secondary MSFE of cells isolated from tumor tissue", "setting": "[3]; 80 mg/kg i.p. daily, compared to vehicle group", "result": "diminished but not significantly"}, {"measurement": "limiting dilution assay, tumors developed", "setting": "[3]; 1.5 weeks with 5×10^5 cells, vehicle all animals (n=5)", "result": "3/5"}, {"measurement": "limiting dilution assay, tumors developed", "setting": "[3]; 2.5 weeks with 1×10^5 cells", "result": "0/5"}]}
{"smiles": "[H]/N=C(/NC)NCCC[C@H](N)C(=O)O", "note": "[L-NMMA, N^G-monomethyl-L-arginine]", "values": [{"measurement": "migration", "setting": "[4]; micromolar range", "result": "not consistent and less effective"}, {"measurement": "migration", "setting": "[4]; millimolar range", "result": "reduction in migration capacity"}, {"measurement": "migration", "setting": "[5]; micromolar range", "result": "not consistent and less effective"}, {"measurement": "migration", "setting": "[5]; millimolar range", "result": "reduction in migration capacity"}, {"measurement": "PD-L1 expression", "setting": "[6]", "result": "increase the PD-L1 expression"}, {"measurement": "proliferation", "setting": "[7]", "result": "anti-proliferative activity"}, {"measurement": "proliferation", "setting": "[8]", "result": "anti-proliferative activity"}, {"measurement": "duration of elevation in BP", "setting": "after the last injection of L-NMMA", "result": "transient and disappeared 24 hrs after the last injection"}, {"measurement": "mean systolic pressure", "setting": "oral L-NMMA 200 mg/kg, basal levels 120 mmHg", "result": 147, "unit": "mm Hg"}, {"measurement": "time to normalization of blood pressure upon ceasing the infusion", "setting": "[9]; 12 mg/kg", "result": "less than 5 min"}, {"measurement": "transient increase in systolic blood pressure", "setting": "[9]; 12 mg/kg", "result": "up to 25 mm Hg"}, {"measurement": "safety of bolus injections", "setting": "[9]; 3, 6, and 12 mg/kg prior to infusion of IL-2, n=3 per cohort", "result": "safe"}, {"measurement": "blood pressure", "setting": "[9]; 3 and 6 mg/kg", "result": "remained unchanged"}, {"measurement": "clinically apparent side effects", "setting": "[9]; 3 and 6 mg/kg", "result": "did not induce clinically apparent side effects"}, {"measurement": "hematologic, liver, or renal abnormalities", "setting": "[9]; human, in vivo", "result": "not associated with any hematologic, liver, or renal abnormalities"}, {"measurement": "PD-L1 expression", "setting": "[10]", "result": "increase the PD-L1 expression"}, {"measurement": "L-NMMA plasma levels", "setting": "[11]; 200 mg/kg oral gavage, 0.5, 2, 12, 24 hrs", "result": "cleared rapidly"}, {"measurement": "L-NMMA in tumor tissue", "setting": "[11]; 24 hrs after completion of treatment", "result": "accumulates in the tumor tissue"}, {"measurement": "tolerability", "setting": "[12]; in vivo", "result": "well tolerated with few AEs other than transient (minutes) reversible hypertension"}, {"measurement": "mortality", "setting": "[12]; myocardial infarction complicated by refractory cardiogenic shock", "result": "no effect on mortality"}, {"measurement": "limiting dilution assay, tumors", "setting": "[13]; 5 weeks with 5×10^4 cells, vehicle 12/12", "result": "1/12"}, {"measurement": "tumor growth", "setting": "[13]; L-NMMA 200 mg/kg daily, docetaxel 20 mg/kg days 0 and 21, 31 days", "result": "reduced tumor growth"}, {"measurement": "limiting dilution assay, tumors", "setting": "[13]; after six weeks, vehicle 6/12", "result": "3/12"}, {"measurement": "primary MS of cells isolated from tumor tissue", "setting": "[13]; compared to vehicle and chemotherapy alone groups", "result": "less"}, {"measurement": "proliferation rate by immunohistochemistry (Ki67)", "setting": "[13]; mouse, in vivo", "result": "lower proliferation rate"}, {"measurement": "secondary MS of cells isolated from tumor tissue", "setting": "[13]; mouse, in vivo", "result": "reduce secondary MS"}, {"measurement": "total NO production", "setting": "[14]", "result": "decrease in total NO production"}, {"measurement": "limiting dilution assay, tumors", "setting": "[15]; 7 weeks with 5×10^4 cells, vehicle 12/12", "result": "4/12"}, {"measurement": "tumor growth", "setting": "[15]; L-NMMA 80 mg/kg daily, alone or with docetaxel 20 mg/kg, after 10 days", "result": "no differential effect"}, {"measurement": "tumor growth", "setting": "[15]; L-NMMA daily dose increased to 200 mg/kg, alone or with docetaxel", "result": "efficiently blocked"}, {"measurement": "tumor cell proliferation by immunohistochemistry (Ki67)", "setting": "[15]; mouse, in vivo", "result": "Higher proliferating rate in vehicle and chemotherapy groups compared to L-NMMA and combination groups"}, {"measurement": "limiting dilution assay, tumors", "setting": "[15]; week nine with 2×10^4 cells, vehicle 7/12", "result": "0/12"}, {"measurement": "conversion of L-arginine to L-citrulline and NO by iNOS", "setting": "[16]", "result": "inhibits the conversion of L-arginine to L-citrulline and NO by iNOS"}]}
